{"source": "patent US20240091240A1", "about": "“TREATMENTS FOR BLOOD-BRAIN BARRIER DYSFUNCTION AND RECURRENT SEIZURES USING NOX/LOX/COX INHIBITORS” (University of Kentucky Research Foundation, priority 2022, published 2024)", "origin": "cited, not measured here", "system": "subjects suffering from seizures", "conditions": "dosage of 5 mg/kg and 10 mg/kg"}
{"smiles": "CC1(C)Cc2c(-c3ccccc3)c(-c3ccc(Cl)cc3)c(CC(=O)O)n2C1", "note": "[licofelone]", "values": [{"measurement": "brain capillary leakage", "result": "reduce brain capillary leakage"}]}
